ChEMBL document CHEMBL1909046, “DrugMatrix in vitro pharmacology data”

Target: Mu-type opioid receptor (Homo sapiens, UniProt P35372)
Assay: DRUGMATRIX: Opiate mu (OP3, MOP) radioligand binding (ligand: [3H] Diprenorphine)
Type: cell membranes, CHO-K1, Membrane
Settings: cho-k1; Not Active = under 50% inhibition at 10 µM

Sequence of Mu-type opioid receptor (P35372 whole entry): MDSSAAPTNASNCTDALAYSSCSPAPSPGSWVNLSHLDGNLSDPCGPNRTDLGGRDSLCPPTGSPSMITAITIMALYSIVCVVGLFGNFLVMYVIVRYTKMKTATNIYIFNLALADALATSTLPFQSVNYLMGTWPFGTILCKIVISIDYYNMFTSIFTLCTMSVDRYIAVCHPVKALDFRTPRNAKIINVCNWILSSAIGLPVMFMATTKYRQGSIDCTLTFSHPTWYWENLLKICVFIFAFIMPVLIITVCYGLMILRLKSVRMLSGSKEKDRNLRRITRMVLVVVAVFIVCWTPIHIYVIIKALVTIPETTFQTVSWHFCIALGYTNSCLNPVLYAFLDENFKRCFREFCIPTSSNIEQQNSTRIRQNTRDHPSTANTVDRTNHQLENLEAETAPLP

Row | Compound | IC50
1 | OCc1ccccc1 [BENZYL ALCOHOL] | Not Active
2 | C=C1C(=O)O[C@@H]2C3O[C@]3(C)CC/C=C(\C)CC[C@@H]12 (stereo not given in full) | Not Active
3 | CCOC(=O)c1ccc(N)cc1 [BENZOCAINE] | Not Active

Target: T1, Caspase-1 (Homo sapiens, UniProt P29466);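 also: Caspase-1 enzyme inhibition assay with a peptide substrate; in other assays of this panel Not Active means under 50% inhibition at 10 µM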
T1 sequence (P29466 whole entry): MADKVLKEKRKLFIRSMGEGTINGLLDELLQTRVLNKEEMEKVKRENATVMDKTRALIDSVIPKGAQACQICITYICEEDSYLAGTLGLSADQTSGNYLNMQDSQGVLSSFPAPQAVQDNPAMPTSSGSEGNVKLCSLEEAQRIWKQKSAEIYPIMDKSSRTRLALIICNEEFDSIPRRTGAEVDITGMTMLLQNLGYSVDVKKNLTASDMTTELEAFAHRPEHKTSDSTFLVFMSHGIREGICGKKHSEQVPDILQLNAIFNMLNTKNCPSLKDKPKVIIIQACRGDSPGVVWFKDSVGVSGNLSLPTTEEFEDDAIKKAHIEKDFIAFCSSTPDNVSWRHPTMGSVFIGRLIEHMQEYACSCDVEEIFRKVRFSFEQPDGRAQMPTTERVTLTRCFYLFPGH
Assay: not given
Set-up: species or system Escherichia coli
Settings: not given

Row | Compound | IC50
4 | OCc1ccccc1 [BENZYL ALCOHOL] | Not Active
5 | C=C1C(=O)O[C@@H]2C3O[C@]3(C)CC/C=C(\C)CC[C@@H]12 (stereo not given in full) | Not Active
6 | CCOC(=O)c1ccc(N)cc1 [BENZOCAINE] | Not Active

Target: Melanocortin receptor 4 (Homo sapiens, UniProt P32245); also: in other assays of this panel Not Active means under 50% inhibition at 10 µM
Sequence (P32245 whole entry): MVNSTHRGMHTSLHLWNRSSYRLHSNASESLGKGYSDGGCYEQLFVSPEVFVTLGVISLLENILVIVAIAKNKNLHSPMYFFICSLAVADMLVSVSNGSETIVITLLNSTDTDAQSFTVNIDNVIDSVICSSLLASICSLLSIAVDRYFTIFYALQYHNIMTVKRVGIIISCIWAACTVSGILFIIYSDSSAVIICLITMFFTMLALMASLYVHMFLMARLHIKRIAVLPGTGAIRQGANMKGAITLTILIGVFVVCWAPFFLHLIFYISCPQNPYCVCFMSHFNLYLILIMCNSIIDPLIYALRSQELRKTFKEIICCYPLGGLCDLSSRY
Assay: not given
Type: cell membranes, Membrane
Settings: hek293

Row | Compound | IC50
7 | OCc1ccccc1 [BENZYL ALCOHOL] | Not Active
8 | C=C1C(=O)O[C@@H]2C3O[C@]3(C)CC/C=C(\C)CC[C@@H]12 (stereo not given in full) | Not Active
9 | CCOC(=O)c1ccc(N)cc1 [BENZOCAINE] | Not Active

Target: T2, Cysteinyl leukotriene receptor 1 (Homo sapiens, UniProt Q9Y271); also: in other assays of this panel Not Active means under 50% inhibition at 10 µM
T2 sequence (Q9Y271 whole entry): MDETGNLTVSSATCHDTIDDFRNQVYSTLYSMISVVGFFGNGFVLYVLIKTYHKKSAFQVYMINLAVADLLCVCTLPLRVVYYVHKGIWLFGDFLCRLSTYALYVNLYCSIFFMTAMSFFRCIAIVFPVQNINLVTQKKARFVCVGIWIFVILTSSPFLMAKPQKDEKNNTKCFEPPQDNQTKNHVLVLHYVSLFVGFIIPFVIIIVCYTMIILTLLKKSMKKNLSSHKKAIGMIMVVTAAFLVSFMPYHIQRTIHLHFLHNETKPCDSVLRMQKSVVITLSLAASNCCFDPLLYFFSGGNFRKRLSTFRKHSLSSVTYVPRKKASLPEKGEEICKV
Assay: not given
Type: cell membranes, CHO-K1, Membrane
Settings: cho-k1

Row | Compound | IC50
10 | OCc1ccccc1 [BENZYL ALCOHOL] | Not Active
11 | C=C1C(=O)O[C@@H]2C3O[C@]3(C)CC/C=C(\C)CC[C@@H]12 (stereo not given in full) | Not Active
12 | CCOC(=O)c1ccc(N)cc1 [BENZOCAINE] | Not Active

Target: 5-hydroxytryptamine receptor 1B (Rattus norvegicus, UniProt P28564); also: in other assays of this panel Not Active means under 50% inhibition at 10 µM
Sequence (P28564 whole entry): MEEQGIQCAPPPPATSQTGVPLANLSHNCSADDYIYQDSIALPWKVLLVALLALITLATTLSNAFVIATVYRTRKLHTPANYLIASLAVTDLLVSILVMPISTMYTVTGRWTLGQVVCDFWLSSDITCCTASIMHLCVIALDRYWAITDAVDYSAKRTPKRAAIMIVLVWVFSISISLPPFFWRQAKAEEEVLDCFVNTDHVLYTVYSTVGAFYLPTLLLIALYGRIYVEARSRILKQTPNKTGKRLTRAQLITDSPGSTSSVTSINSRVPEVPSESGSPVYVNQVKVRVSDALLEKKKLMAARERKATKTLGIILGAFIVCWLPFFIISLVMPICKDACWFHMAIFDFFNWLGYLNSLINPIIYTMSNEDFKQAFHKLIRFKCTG
Assay: not given
Type: cell membranes, Wistar, Cerebral cortex, Membrane
Settings: not given

Row | Compound | IC50
13 | OCc1ccccc1 [BENZYL ALCOHOL] | Not Active
14 | C=C1C(=O)O[C@@H]2C3O[C@]3(C)CC/C=C(\C)CC[C@@H]12 (stereo not given in full) | Not Active
15 | CCOC(=O)c1ccc(N)cc1 [BENZOCAINE] | Not Active

Test system: not listed separately
Assay: DRUGMATRIX: Purinergic P2X radioligand binding (ligand: [3H] alpha, beta-Methylene-ATP)
Type: cell membranes, Oryctolagus cuniculus, New Zealand albino, Urinary bladder, Membrane
Settings: Not Active = under 50% inhibition at 10 µM

Row | Compound | IC50 | Ki
16 | OCc1ccccc1 [BENZYL ALCOHOL] | Not Active | Not Active
17 | C=C1C(=O)O[C@@H]2C3O[C@]3(C)CC/C=C(\C)CC[C@@H]12 (stereo not given in full) | Not Active | Not Active
18 | CCOC(=O)c1ccc(N)cc1 [BENZOCAINE] | Not Active | Not Active

Target: T3, Cathepsin G (Homo sapiens, UniProt P08311)
T3 sequence (P08311 whole entry): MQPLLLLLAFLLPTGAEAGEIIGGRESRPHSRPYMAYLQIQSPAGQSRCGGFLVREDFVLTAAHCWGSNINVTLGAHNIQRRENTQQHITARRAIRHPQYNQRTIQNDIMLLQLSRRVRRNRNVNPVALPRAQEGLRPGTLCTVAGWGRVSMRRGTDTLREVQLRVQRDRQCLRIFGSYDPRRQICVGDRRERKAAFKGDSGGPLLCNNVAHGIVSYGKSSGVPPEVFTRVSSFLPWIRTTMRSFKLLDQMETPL
Assay: not given
Type: tissue-based
Settings: neutrophil

Row | Compound | IC50
19 | OCc1ccccc1 [BENZYL ALCOHOL] | Not Active
20 | C=C1C(=O)O[C@@H]2C3O[C@]3(C)CC/C=C(\C)CC[C@@H]12 (stereo not given in full) | Not Active
21 | CCOC(=O)c1ccc(N)cc1 [BENZOCAINE] | Not Active

Target: T4, 5-hydroxytryptamine receptor 2C (Homo sapiens, UniProt P28335)
T4 sequence (P28335 whole entry): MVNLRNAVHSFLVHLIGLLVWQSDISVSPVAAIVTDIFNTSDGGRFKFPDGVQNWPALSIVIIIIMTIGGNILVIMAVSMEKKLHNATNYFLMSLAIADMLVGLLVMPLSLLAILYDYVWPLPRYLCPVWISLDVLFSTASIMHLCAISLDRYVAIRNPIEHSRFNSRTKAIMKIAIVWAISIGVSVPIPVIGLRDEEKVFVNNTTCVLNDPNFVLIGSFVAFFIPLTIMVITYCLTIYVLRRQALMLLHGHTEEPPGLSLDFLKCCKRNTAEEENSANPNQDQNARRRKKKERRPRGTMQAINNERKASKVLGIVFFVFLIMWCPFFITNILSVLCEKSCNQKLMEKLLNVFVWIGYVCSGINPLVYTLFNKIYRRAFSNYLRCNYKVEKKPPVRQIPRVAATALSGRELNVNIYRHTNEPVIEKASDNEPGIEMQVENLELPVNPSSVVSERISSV
Assay: DRUGMATRIX: Serotonin (5-Hydroxytryptamine) 5-HT2C radioligand binding (ligand: [3H] Mesulergine)
Type: cell membranes, CHO-K1, Membrane
Settings: cho-k1; Not Active = under 50% inhibition at 10 µM

Row | Compound | IC50
22 | OCc1ccccc1 [BENZYL ALCOHOL] | Not Active
23 | C=C1C(=O)O[C@@H]2C3O[C@]3(C)CC/C=C(\C)CC[C@@H]12 (stereo not given in full) | Not Active
24 | CCOC(=O)c1ccc(N)cc1 [BENZOCAINE] | Not Active

Target: T5, D(4) dopamine receptor (Homo sapiens, UniProt P21917)
T5 sequence (P21917 whole entry): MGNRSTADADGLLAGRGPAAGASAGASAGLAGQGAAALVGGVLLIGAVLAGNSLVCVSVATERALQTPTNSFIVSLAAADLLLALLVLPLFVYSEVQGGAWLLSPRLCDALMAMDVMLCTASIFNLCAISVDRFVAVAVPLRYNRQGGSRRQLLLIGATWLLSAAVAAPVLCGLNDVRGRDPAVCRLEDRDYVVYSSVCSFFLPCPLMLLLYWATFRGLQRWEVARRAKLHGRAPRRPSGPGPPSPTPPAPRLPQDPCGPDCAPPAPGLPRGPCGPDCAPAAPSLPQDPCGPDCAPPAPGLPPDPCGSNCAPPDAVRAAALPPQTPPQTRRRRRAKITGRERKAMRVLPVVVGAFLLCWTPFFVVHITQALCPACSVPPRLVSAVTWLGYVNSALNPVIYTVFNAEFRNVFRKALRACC
Assay: DRUGMATRIX: Dopamine D4.2 radioligand binding (ligand: [3H] Spiperone)
Type: cell membranes, CHO-K1, Membrane
Settings: cho-k1; Not Active = under 50% inhibition at 10 µM

Row | Compound | IC50
25 | OCc1ccccc1 [BENZYL ALCOHOL] | Not Active
26 | C=C1C(=O)O[C@@H]2C3O[C@]3(C)CC/C=C(\C)CC[C@@H]12 (stereo not given in full) | Not Active
27 | CCOC(=O)c1ccc(N)cc1 [BENZOCAINE] | Not Active

Target: Tyrosine-protein kinase Fyn (Homo sapiens, UniProt P06241)
Sequence (P06241 whole entry): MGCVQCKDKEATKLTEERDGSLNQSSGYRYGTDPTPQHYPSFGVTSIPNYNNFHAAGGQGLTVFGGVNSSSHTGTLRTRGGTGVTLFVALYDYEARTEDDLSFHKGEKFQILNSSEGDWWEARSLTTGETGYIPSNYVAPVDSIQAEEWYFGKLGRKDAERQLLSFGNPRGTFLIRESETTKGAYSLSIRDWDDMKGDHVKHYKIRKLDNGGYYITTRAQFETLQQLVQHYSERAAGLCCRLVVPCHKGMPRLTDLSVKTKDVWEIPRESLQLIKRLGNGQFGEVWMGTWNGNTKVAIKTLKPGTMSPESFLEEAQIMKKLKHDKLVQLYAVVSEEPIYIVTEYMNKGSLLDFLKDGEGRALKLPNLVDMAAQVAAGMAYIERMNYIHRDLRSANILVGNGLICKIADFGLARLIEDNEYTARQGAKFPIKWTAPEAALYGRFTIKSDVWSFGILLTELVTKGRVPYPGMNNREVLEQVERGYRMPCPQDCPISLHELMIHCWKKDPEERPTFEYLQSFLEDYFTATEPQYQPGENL
Assay: biochemical
Type: cell-based, Insect cells
Settings: insect cells

Row | Compound | IC50
28 | OCc1ccccc1 [BENZYL ALCOHOL] | Not Active
29 | C=C1C(=O)O[C@@H]2C3O[C@]3(C)CC/C=C(\C)CC[C@@H]12 (stereo not given in full) | Not Active
30 | CCOC(=O)c1ccc(N)cc1 [BENZOCAINE] | Not Active

Test system: not listed separately
Assay: DRUGMATRIX: beta-Lactamase enzyme inhibition (substrate: Nitrocefin)
Set-up: species or system Bacillus cereus
Settings: Not Active = under 50% inhibition at 10 µM

Row | Compound | IC50 | Ki
31 | OCc1ccccc1 [BENZYL ALCOHOL] | Not Active | Not Active
32 | C=C1C(=O)O[C@@H]2C3O[C@]3(C)CC/C=C(\C)CC[C@@H]12 (stereo not given in full) | Not Active | Not Active
33 | CCOC(=O)c1ccc(N)cc1 [BENZOCAINE] | Not Active | Not Active

Target: Melanocortin receptor 5 (Homo sapiens, UniProt P33032); also: in other assays of this panel Not Active means under 50% inhibition at 10 µM
Sequence (P33032 whole entry): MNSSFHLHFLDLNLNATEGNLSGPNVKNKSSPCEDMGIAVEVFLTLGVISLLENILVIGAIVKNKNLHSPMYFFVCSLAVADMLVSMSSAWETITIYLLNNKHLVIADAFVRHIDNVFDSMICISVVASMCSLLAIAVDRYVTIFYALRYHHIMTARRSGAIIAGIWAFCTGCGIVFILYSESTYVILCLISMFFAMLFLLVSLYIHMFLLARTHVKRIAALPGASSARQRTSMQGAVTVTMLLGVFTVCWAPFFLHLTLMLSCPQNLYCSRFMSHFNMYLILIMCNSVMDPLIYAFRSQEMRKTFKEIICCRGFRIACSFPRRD
Assay: not given
Type: cell membranes, HEK293, Membrane
Settings: hek293

Row | Compound | IC50
34 | OCc1ccccc1 [BENZYL ALCOHOL] | Not Active
35 | C=C1C(=O)O[C@@H]2C3O[C@]3(C)CC/C=C(\C)CC[C@@H]12 (stereo not given in full) | Not Active
36 | CCOC(=O)c1ccc(N)cc1 [BENZOCAINE] | Not Active

Target: Epidermal growth factor receptor (Homo sapiens, UniProt P00533)
Sequence (P00533 whole entry): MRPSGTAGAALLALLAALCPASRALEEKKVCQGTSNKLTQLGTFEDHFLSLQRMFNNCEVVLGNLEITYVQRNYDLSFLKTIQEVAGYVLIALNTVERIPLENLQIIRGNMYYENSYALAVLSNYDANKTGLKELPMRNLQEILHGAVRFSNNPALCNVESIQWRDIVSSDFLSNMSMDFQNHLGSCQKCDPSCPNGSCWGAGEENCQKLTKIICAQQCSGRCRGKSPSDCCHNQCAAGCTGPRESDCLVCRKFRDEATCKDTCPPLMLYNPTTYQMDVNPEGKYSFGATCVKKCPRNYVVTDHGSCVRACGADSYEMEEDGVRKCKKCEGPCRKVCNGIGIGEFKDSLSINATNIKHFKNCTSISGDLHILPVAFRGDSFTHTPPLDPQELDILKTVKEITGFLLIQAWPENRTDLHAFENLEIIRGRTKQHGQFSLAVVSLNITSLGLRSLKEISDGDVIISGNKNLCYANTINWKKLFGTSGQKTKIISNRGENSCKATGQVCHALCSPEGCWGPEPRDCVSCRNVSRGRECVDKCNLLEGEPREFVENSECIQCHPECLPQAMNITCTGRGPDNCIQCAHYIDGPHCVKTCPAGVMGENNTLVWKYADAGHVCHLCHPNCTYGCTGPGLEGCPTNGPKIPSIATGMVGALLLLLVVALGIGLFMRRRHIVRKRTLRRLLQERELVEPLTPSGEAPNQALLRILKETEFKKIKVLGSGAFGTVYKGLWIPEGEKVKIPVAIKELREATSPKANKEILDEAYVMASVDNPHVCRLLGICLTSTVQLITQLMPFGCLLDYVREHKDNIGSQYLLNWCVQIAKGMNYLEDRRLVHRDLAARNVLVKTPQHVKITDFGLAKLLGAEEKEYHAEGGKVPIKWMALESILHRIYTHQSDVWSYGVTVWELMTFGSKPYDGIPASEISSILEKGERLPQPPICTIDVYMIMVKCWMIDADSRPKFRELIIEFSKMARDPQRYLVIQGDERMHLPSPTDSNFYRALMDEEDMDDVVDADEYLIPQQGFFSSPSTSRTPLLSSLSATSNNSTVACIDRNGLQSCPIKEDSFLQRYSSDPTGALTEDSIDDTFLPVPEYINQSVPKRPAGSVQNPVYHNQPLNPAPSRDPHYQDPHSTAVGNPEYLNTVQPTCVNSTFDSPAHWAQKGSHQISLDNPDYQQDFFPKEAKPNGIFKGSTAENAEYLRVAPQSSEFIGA
Assay: DRUGMATRIX: Protein Tyrosine Kinase, EGF Receptor enzyme inhibition (substrate: Poly(Glu:Tyr))
Type: cell-based, Insect cells
Settings: insect cells; Not Active = under 50% inhibition at 10 µM

Row | Compound | Ki | IC50
37 | OCc1ccccc1 [BENZYL ALCOHOL] | Not Active | –
38 | C=C1C(=O)O[C@@H]2C3O[C@]3(C)CC/C=C(\C)CC[C@@H]12 (stereo not given in full) | – | Not Active
39 | CCOC(=O)c1ccc(N)cc1 [BENZOCAINE] | – | Not Active

Test system: not listed separately
Assay: DRUGMATRIX: Sigma2 radioligand binding (ligand: [3H] Ifenprodil)
Type: cell membranes, Rattus norvegicus, Wistar, Brain, Membrane
Settings: Not Active = under 50% inhibition at 10 µM

Row | Compound | IC50 | Ki
40 | OCc1ccccc1 [BENZYL ALCOHOL] | Not Active | Not Active
41 | C=C1C(=O)O[C@@H]2C3O[C@]3(C)CC/C=C(\C)CC[C@@H]12 (stereo not given in full) | Not Active | Not Active
42 | CCOC(=O)c1ccc(N)cc1 [BENZOCAINE] | Not Active | Not Active

Test system: not listed separately
Assay: DRUGMATRIX: Leukotriene, BLT (LTB4) radioligand binding (ligand: [3H]LTB4)
Type: cell membranes, Membrane
Settings: u-937; Not Active = under 50% inhibition at 10 µM

Row | Compound | IC50 | Ki
43 | OCc1ccccc1 [BENZYL ALCOHOL] | Not Active | Not Active
44 | C=C1C(=O)O[C@@H]2C3O[C@]3(C)CC/C=C(\C)CC[C@@H]12 (stereo not given in full) | Not Active | Not Active
45 | CCOC(=O)c1ccc(N)cc1 [BENZOCAINE] | Not Active | Not Active

Target: Beta-1 adrenergic receptor (Homo sapiens, UniProt P08588)
Sequence (P08588 whole entry): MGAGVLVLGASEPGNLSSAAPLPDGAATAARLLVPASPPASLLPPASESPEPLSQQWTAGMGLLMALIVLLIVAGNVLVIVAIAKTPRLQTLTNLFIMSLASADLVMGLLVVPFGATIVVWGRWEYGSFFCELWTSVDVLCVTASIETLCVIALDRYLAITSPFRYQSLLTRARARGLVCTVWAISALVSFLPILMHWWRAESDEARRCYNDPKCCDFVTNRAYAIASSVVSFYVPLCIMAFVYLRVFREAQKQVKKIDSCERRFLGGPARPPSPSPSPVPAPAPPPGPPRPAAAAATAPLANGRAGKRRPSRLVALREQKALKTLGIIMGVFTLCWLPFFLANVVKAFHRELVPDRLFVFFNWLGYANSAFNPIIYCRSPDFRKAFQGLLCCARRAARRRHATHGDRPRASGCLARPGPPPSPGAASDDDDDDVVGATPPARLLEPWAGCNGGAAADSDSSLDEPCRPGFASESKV
Assay: DRUGMATRIX: Adrenergic beta1 radioligand binding (ligand: [125I] Cyanopindolol)
Type: cell membranes, CHO-K1, Membrane
Settings: cho-k1; Not Active = under 50% inhibition at 10 µM

Row | Compound | IC50
46 | OCc1ccccc1 [BENZYL ALCOHOL] | Not Active
47 | C=C1C(=O)O[C@@H]2C3O[C@]3(C)CC/C=C(\C)CC[C@@H]12 (stereo not given in full) | Not Active
48 | CCOC(=O)c1ccc(N)cc1 [BENZOCAINE] | Not Active
